Results from ChEMBL document CHEMBL5131445, “Optimization of a novel piperazinone series as potent selective peripheral covalent BTK inhibitors” (Bioorg Med Chem Lett, 2022).
pIC50, pKd: −log10 of the molar value. Converted amounts (≈) assume the structure as drawn.

Key:
[1] = target: Receptor tyrosine-protein kinase erbB-2 (Homo sapiens, UniProt P04626); assay: Binding affinity to ERBB2 (unknown origin) assessed as dissociation constant by KINOMEscan analysis
[2] = target: Receptor tyrosine-protein kinase erbB-4 (Homo sapiens, UniProt Q15303); assay: Binding affinity to ERBB4 (unknown origin) assessed as dissociation constant by KINOMEscan analysis
[3] = Metabolic stability in human liver microsomes assessed as intrinsic clearance; format: ADME, Microsome; settings: read-out: CLH
[4] = Plasma protein binding in human assessed as unbound fraction by rapid equilibrium dialysis method; format: ADME, cell-free
[5] = Plasma protein binding in rat assessed as unbound fraction by rapid equilibrium dialysis method; format: ADME, cell-free
[6] = target: T1, Tyrosine-protein kinase BTK (Homo sapiens, UniProt Q06187); assay: Binding affinity to BTK (unknown origin) assessed as dissociation constant by KINOMEscan analysis
[7] = target: T2, Tyrosine-protein kinase JAK3 (Homo sapiens, UniProt P52333); assay: Binding affinity to JAK3 (unknown origin) assessed as dissociation constant by KINOMEscan analysis
T2 sequence (P52333 whole entry): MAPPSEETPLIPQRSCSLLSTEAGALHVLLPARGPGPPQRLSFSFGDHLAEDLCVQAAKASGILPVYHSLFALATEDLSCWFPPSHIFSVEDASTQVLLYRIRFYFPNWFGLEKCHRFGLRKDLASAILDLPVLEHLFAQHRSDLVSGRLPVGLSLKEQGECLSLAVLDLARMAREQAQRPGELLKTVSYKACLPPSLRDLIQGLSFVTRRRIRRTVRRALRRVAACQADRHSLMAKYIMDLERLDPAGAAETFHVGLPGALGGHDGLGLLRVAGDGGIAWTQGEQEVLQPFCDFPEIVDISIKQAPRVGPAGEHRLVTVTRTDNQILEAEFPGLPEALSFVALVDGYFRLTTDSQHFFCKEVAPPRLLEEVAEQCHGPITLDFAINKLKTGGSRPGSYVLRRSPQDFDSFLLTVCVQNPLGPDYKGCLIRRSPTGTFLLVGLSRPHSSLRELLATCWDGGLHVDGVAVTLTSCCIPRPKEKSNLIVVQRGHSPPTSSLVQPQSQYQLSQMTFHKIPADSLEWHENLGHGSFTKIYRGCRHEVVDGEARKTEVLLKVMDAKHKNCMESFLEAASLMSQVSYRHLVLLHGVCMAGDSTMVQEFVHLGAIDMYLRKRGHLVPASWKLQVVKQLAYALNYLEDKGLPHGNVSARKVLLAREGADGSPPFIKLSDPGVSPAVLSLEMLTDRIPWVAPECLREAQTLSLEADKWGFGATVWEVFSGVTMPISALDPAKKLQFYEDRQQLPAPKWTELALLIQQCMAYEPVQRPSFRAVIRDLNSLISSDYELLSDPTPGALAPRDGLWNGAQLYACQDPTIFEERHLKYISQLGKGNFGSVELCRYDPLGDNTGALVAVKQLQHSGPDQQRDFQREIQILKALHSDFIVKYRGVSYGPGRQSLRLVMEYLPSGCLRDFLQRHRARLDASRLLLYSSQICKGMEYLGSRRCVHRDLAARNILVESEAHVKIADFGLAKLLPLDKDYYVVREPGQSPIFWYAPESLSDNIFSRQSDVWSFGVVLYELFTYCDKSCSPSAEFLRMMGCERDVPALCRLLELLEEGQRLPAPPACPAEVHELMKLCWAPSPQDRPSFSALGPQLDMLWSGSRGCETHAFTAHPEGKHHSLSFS

[8] = target: T3, Tyrosine-protein kinase TXK (Homo sapiens, UniProt P42681); assay: Binding affinity to TXK (unknown origin) assessed as dissociation constant by KINOMEscan analysis
T3 sequence (P42681 whole entry): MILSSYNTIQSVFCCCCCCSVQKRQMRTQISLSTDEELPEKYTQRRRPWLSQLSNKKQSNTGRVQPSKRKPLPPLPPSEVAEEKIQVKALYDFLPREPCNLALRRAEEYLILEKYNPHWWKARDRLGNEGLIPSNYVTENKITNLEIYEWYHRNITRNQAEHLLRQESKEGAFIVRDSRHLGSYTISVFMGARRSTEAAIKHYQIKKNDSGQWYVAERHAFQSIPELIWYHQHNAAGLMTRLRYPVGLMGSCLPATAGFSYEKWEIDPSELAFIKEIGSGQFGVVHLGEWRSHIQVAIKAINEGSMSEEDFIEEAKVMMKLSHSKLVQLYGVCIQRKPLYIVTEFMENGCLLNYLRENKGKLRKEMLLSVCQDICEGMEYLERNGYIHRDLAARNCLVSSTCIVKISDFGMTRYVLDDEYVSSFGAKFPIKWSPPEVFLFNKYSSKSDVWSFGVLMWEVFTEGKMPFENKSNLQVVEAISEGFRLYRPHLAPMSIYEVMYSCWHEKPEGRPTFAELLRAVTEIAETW

[9] = target: T1, Tyrosine-protein kinase BTK; assay: Inhibition of BTK (unknown origin) at 1 uM by KINOMEscan assay relative to control
Cytochrome P450 2C8 = target: T4, Cytochrome P450 2C8 (Homo sapiens, UniProt P10632); assay: Inhibition of human CYP2C8; format: ADME
T4 sequence (P10632 whole entry): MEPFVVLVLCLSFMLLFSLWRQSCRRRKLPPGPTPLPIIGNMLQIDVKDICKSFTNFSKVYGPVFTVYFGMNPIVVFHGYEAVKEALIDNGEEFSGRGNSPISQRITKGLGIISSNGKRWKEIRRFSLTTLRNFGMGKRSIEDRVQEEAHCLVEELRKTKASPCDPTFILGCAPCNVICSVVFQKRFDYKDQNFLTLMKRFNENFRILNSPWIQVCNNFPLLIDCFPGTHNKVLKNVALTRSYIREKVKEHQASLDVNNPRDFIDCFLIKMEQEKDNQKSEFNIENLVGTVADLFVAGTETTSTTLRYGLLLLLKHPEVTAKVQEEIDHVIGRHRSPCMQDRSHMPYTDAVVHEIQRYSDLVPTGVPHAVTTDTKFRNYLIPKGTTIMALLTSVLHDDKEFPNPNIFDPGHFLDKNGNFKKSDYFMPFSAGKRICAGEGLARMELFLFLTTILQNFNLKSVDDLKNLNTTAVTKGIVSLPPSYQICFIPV

Cytochrome P450 2C9 = Cytochrome P450 2C9 (Homo sapiens, UniProt P11712); assay: Inhibition of human CYP2C9; format: ADME
Cytochrome P450 3A4 = Cytochrome P450 3A4 (Homo sapiens, UniProt P08684); assay: Inhibition of human CYP3A4; format: ADME
[10] = target: Voltage-gated inwardly rectifying potassium channel KCNH2 (Homo sapiens, UniProt Q12809); assay: Inhibition of hERG; format: toxicity
[11] = Kinetic aqueous solubility of the compound at pH 1.5 by shake flask assay; format: physicochemical; settings: read-out: Kinetic_solubility
[12] = target: T1, Tyrosine-protein kinase BTK; assay: Inhibition of BTK in human Ramos cells assessed as target occupancy; format: cell-based

T1 sequence (Q06187 whole entry): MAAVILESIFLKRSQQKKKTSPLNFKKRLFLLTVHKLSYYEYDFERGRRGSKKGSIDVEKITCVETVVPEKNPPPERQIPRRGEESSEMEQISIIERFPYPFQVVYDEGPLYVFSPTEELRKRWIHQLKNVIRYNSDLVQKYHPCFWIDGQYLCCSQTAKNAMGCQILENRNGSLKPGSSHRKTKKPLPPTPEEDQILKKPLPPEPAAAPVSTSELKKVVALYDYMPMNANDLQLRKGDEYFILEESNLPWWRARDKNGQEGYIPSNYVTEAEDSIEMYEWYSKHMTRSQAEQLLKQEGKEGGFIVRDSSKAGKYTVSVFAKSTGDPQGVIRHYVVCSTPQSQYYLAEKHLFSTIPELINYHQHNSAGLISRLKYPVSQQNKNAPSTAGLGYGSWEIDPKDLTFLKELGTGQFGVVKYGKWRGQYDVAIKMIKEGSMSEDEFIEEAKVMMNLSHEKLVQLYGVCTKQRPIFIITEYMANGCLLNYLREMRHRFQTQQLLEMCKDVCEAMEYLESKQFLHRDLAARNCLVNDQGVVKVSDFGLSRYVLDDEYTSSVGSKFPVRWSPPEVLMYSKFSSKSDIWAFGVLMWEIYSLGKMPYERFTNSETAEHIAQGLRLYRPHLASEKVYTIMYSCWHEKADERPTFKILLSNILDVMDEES
Chain of Receptor tyrosine-protein kinase erbB-4 (Q15303 whole entry): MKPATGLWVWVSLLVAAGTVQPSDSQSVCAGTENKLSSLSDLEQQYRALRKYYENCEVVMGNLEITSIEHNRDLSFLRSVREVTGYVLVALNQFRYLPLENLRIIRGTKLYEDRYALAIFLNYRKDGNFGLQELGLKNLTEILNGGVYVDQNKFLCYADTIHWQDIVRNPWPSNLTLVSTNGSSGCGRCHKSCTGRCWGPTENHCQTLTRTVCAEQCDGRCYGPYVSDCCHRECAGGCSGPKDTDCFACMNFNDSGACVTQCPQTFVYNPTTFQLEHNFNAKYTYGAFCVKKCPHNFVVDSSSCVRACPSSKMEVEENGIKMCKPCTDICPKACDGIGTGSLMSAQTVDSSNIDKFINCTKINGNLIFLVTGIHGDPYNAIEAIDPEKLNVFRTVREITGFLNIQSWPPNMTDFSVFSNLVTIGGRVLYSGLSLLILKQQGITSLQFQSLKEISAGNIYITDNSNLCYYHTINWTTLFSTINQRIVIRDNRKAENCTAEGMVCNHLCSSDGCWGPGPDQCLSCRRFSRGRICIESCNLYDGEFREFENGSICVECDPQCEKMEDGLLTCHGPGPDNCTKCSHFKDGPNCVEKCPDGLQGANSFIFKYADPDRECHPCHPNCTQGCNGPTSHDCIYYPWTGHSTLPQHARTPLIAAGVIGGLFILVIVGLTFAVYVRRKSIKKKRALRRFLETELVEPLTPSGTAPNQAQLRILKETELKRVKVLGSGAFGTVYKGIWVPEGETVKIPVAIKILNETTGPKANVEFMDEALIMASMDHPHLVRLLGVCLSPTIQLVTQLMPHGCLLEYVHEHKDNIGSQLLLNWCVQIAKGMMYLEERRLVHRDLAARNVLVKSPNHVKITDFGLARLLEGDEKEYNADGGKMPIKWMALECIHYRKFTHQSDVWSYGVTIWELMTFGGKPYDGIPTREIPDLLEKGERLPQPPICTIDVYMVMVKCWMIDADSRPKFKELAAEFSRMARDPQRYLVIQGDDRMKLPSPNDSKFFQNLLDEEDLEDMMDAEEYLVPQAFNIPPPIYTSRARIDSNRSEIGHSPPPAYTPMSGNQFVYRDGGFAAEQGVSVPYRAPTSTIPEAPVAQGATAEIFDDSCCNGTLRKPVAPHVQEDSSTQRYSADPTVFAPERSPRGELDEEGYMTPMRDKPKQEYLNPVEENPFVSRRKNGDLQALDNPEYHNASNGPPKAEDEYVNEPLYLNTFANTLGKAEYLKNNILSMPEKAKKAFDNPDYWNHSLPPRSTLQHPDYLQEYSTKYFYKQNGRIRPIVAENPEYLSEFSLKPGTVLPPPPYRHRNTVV
Chain of Cytochrome P450 2C9 (P11712 whole entry): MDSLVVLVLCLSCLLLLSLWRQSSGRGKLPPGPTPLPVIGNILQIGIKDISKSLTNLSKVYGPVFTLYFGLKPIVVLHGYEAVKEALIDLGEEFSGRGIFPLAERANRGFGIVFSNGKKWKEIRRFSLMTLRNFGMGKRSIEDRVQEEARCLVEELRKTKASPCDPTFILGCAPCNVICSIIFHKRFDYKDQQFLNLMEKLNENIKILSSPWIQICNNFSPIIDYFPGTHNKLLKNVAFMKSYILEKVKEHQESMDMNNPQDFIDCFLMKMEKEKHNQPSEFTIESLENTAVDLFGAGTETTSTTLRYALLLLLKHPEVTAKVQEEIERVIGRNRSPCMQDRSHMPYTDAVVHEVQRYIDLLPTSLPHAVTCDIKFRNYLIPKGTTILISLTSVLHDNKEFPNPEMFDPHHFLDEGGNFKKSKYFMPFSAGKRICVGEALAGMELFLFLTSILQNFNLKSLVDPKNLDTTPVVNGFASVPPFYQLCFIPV
Chain of Voltage-gated inwardly rectifying potassium channel KCNH2 (Q12809 whole entry): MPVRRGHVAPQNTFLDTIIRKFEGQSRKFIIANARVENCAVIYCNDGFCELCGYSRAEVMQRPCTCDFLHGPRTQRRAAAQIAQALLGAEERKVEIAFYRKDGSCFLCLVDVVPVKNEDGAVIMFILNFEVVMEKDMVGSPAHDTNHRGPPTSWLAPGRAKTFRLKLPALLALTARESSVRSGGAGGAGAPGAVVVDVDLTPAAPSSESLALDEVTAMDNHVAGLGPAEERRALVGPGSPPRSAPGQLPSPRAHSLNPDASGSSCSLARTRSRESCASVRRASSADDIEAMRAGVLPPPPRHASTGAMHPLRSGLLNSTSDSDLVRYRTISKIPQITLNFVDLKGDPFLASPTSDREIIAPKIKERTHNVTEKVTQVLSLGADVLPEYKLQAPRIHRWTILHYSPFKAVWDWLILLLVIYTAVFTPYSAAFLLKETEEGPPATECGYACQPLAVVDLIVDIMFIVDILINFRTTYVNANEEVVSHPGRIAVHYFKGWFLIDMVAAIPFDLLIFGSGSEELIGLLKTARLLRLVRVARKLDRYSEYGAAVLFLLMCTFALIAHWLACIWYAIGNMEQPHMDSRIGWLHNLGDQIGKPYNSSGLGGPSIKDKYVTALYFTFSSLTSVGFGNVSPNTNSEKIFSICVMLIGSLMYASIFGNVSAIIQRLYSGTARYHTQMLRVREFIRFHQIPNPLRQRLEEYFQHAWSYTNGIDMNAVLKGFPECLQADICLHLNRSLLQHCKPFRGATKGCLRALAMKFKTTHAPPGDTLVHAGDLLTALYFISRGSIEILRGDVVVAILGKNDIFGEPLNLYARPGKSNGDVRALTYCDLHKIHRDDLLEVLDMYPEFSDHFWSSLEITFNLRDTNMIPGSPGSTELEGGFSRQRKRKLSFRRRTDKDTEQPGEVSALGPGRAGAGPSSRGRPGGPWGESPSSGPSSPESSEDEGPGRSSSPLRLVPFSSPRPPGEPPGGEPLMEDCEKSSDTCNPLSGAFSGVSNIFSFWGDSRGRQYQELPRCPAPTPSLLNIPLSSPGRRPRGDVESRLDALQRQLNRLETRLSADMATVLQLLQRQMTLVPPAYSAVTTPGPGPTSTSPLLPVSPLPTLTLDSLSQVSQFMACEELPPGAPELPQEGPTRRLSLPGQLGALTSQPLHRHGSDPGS
Chain of Cytochrome P450 3A4 (P08684 whole entry): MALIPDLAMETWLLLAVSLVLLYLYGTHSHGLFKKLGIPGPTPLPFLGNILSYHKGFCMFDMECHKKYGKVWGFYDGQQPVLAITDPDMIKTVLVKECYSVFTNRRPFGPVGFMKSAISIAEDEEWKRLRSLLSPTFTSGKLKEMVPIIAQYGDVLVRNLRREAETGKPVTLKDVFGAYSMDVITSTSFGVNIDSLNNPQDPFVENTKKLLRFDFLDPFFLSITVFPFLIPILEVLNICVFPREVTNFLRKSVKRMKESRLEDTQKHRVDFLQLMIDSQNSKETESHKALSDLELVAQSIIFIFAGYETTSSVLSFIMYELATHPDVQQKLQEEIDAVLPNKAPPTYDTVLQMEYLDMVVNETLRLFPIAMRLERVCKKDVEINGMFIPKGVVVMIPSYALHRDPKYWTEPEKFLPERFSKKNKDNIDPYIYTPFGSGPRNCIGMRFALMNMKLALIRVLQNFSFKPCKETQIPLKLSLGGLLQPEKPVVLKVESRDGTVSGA

pKd [1]: 4.70
pKd [2]: 6.05
CLint scaled [3]: 66 mL/min/kg
fraction unbound [4]: 0.227
fraction unbound [5]: 0.169
pKd [6]: 9.04
pKd [7]: 5.54
pKd [8]: 5.19
inhibition [9]: > 90%
pIC50 (Cytochrome P450 2C8): < 5.00
pIC50 (Cytochrome P450 2C9): < 5.00
pIC50 (Cytochrome P450 3A4): < 5.00
solubility kinetic [11]: 73 µg/mL (≈ 152 µM)
pIC50 [12]: 8.51
Structure (SMILES): C=CC(=O)N(C)CCOc1c(N)ncnc1-c1ccc(CN2CCN(CC(C)C)CC2=O)c(C)c1
pIC50 [10]: < 4.22
